Data from ChEMBL document CHEMBL1201862, “PubChem BioAssay data set” (2004).
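How tested: cells in 96-well plates exposed to compound for 48 hours at five concentrations. GI50: concentration for 50% inhibition of growth.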 Active and inactive are the calls of the source. No stated cut-off is given here; in the data, active = GI50 up to about 1.1 µM and inactive = higher.

Assays:
Assay in all cases: growth of human tumour cells (NCI), 48 h
[1] = tested on: SK-MEL-28
[2] = tested on: SW-620
[3] = tested on: LXFL 529
[4] = tested on: HT-29
[5] = tested on: EKVX
[6] = tested on: SK-MEL-5
[7] = tested on: SK-MEL-2
[8] = tested on: 786-0
[9] = tested on: SN12C
[10] = tested on: NCI-H460
[11] = tested on: CCRF-CEM
[12] = tested on: A498
[13] = tested on: BT-549
[14] = tested on: Hs-578T
[15] = tested on: HOP-92
[16] = tested on: T47D
[17] = tested on: MCF7
[18] = tested on: HOP-62
[19] = tested on: NCI/ADR-RES
[20] = tested on: PC-3

SMILES | GI50 [1] | GI50 [2] | GI50 [3] | GI50 [4] | GI50 [5] | GI50 [6] | GI50 [7] | GI50 [8] | GI50 [9] | GI50 [10] | GI50 [11] | GI50 [12] | GI50 [13] | GI50 [14] | GI50 [15] | GI50 [16] | GI50 [17] | GI50 [18] | GI50 [19] | GI50 [20]
COc1ccc2c(c1)OCCCN(C)OC2c1ccccc1 (stereo not given) | 89.3 µM (inactive) | > 100 µM (inactive) | > 100 µM (inactive) | > 100 µM (inactive) | > 100 µM (inactive) | > 100 µM (inactive) | > 100 µM (inactive) | > 100 µM (inactive) | > 100 µM (inactive) |  |  |  |  |  |  |  |  |  |  | 
CN1CN(c2ccccc2)C2(CCNCC2)C1=O | > 100 µM (inactive) | > 100 µM (inactive) |  | > 100 µM (inactive) | > 100 µM (inactive) | > 100 µM (inactive) | > 100 µM (inactive) | > 100 µM (inactive) | > 100 µM (inactive) | > 100 µM (inactive) | > 100 µM (inactive) | > 100 µM (inactive) | > 100 µM (inactive) | > 100 µM (inactive) | > 100 µM (inactive) | > 100 µM (inactive) | > 100 µM (inactive) | > 100 µM (inactive) | > 100 µM (inactive) | > 100 µM (inactive)
COc1ccc2oc3c(C)cc4c(OC)nnc(OC)c4c3c2c1 | 68.2 µM (inactive) | 7.57 µM (inactive) |  | 4.57 µM (inactive) | 17.9 µM (inactive) | 6.15 µM (inactive) | 82.4 µM (inactive) | 7.52 µM (inactive) | 7.76 µM (inactive) | 3.79 µM (inactive) | 5.21 µM (inactive) | 17.4 µM (inactive) | > 100 µM (inactive) | 31 µM (inactive) | 10.9 µM (inactive) | 29.9 µM (inactive) | 16.3 µM (inactive) | 17.7 µM (inactive) | 18.4 µM (inactive) | 12.8 µM (inactive)
COc1ccc(/C=C/C(=O)NCC(NC(=O)/C=C/c2ccc(OC)c(OC)c2)C(=O)O)cc1OC (stereo not given) | > 100 µM (inactive) | > 100 µM (inactive) |  | > 100 µM (inactive) | > 100 µM (inactive) | > 100 µM (inactive) | > 100 µM (inactive) | > 100 µM (inactive) | > 100 µM (inactive) | > 100 µM (inactive) | > 100 µM (inactive) | > 100 µM (inactive) | > 100 µM (inactive) | > 100 µM (inactive) | 0.0163 µM (active) | > 100 µM (inactive) | > 100 µM (inactive) | > 100 µM (inactive) | 0.0169 µM (active) | > 100 µM (inactive)
COc1cccc(N2C(=O)C3c4[nH]c5ccccc5c4C4CCCC4C3C2=O)c1 (stereo not given) | > 10 µM (inactive) | 7.98 µM (inactive) |  | 5.69 µM (inactive) | > 10 µM (inactive) | > 10 µM (inactive) | > 10 µM (inactive) | 2.14 µM (inactive) | 3.01 µM (inactive) | 4.26 µM (inactive) | > 10 µM (inactive) | 2.17 µM (inactive) | > 10 µM (inactive) | 3.61 µM (inactive) | 3.59 µM (inactive) | > 10 µM (inactive) | > 10 µM (inactive) | 2.52 µM (inactive) | 3.8 µM (inactive) | 9.4 µM (inactive)
ClC1(c2ccccc2)c2ccc(Br)cc2-c2cc(Br)ccc21 | 18.8 µM (inactive) | 19.8 µM (inactive) |  | 12.3 µM (inactive) | 17.9 µM (inactive) | 15.7 µM (inactive) | 17.8 µM (inactive) | 16.6 µM (inactive) | 18.6 µM (inactive) | 14.3 µM (inactive) | 34.6 µM (inactive) | 18.8 µM (inactive) | 17.2 µM (inactive) | 19.9 µM (inactive) | 15.6 µM (inactive) | 19.7 µM (inactive) | 19 µM (inactive) | 19.3 µM (inactive) | 18.1 µM (inactive) | 17.4 µM (inactive)
O=C(O)C1CCN(Cc2oc(CO)cc(=O)c2O)C1 (stereo not given) | > 100 µM (inactive) | > 100 µM (inactive) |  | > 100 µM (inactive) | > 100 µM (inactive) | > 100 µM (inactive) | > 100 µM (inactive) | > 100 µM (inactive) | > 100 µM (inactive) | > 100 µM (inactive) | > 100 µM (inactive) | > 100 µM (inactive) | > 100 µM (inactive) | > 100 µM (inactive) | > 100 µM (inactive) | > 100 µM (inactive) | > 100 µM (inactive) | > 100 µM (inactive) | > 100 µM (inactive) | > 100 µM (inactive)
O=C(CN1c2ccccc2Sc2ccccc21)N1CCNCC1 | > 100 µM (inactive) | > 100 µM (inactive) |  | > 100 µM (inactive) | > 100 µM (inactive) | 40.3 µM (inactive) | > 100 µM (inactive) | > 100 µM (inactive) | > 100 µM (inactive) | > 100 µM (inactive) | 99.8 µM (inactive) | 34.6 µM (inactive) | > 100 µM (inactive) | > 100 µM (inactive) | 29.5 µM (inactive) | 71.9 µM (inactive) | > 100 µM (inactive) | > 100 µM (inactive) | > 100 µM (inactive) | 73.1 µM (inactive)
O=C(N/N=C\c1ccc(Cl)cc1)Nc1cccc2ccccc12 | 22.5 µM (inactive) | 3.41 µM (inactive) |  | 3.21 µM (inactive) | 18.7 µM (inactive) | 4.45 µM (inactive) | 21.5 µM (inactive) | 1.98 µM (inactive) | 9.51 µM (inactive) | 3.24 µM (inactive) | 7.96 µM (inactive) | 2.67 µM (inactive) | 21.7 µM (inactive) | 2.67 µM (inactive) | 4.91 µM (inactive) | 5.52 µM (inactive) | 3.4 µM (inactive) | 2.01 µM (inactive) | > 25 µM (inactive) | 5.97 µM (inactive)
N#C[BH2-][n+]1cn(C2CC(OP(=O)(O)OCC3OC(n4cnc5c(=O)[nH]c(N)nc54)CC3O)C(CO)O2)c2nc(N)[nH]c(=O)c21 (stereo not given) | > 100 µM (inactive) | > 100 µM (inactive) |  | > 100 µM (inactive) | > 100 µM (inactive) | > 100 µM (inactive) | > 100 µM (inactive) | > 100 µM (inactive) | > 100 µM (inactive) | > 100 µM (inactive) | 37.8 µM (inactive) | > 100 µM (inactive) | > 100 µM (inactive) | > 100 µM (inactive) | > 100 µM (inactive) | > 100 µM (inactive) | 62.8 µM (inactive) | > 100 µM (inactive) | > 100 µM (inactive) | > 100 µM (inactive)
COc1cc(/C=C2\C[C@H]3[C@@H]4CC=C5C[C@@H](N6CCCC6)CC[C@]5(C)[C@H]4CC[C@]3(C)[C@H]2O)cc(OC)c1OC | 17.4 µM (inactive) | 8.04 µM (inactive) |  | 3.38 µM (inactive) | 16.1 µM (inactive) | 14.5 µM (inactive) | 19.5 µM (inactive) | 4.11 µM (inactive) | 13.2 µM (inactive) | 3.78 µM (inactive) | 3.72 µM (inactive) | 16.6 µM (inactive) | 16.1 µM (inactive) | 6.11 µM (inactive) | 12.5 µM (inactive) | 20 µM (inactive) | 8.71 µM (inactive) | 16.1 µM (inactive) | 15.8 µM (inactive) | 13.4 µM (inactive)
COc1ccc([N+](=O)[O-])c2c(NCCCN(C)C)ccnc12 | > 63.4 µM (inactive) | 4.7 µM (inactive) |  | 3.66 µM (inactive) | 4.92 µM (inactive) | 2.12 µM (inactive) | 2.05 µM (inactive) | 8.36 µM (inactive) | 7.29 µM (inactive) | 2.34 µM (inactive) | 15 µM (inactive) | 2.33 µM (inactive) | 2.21 µM (inactive) | 6.35 µM (inactive) | 1.78 µM (inactive) | 3.52 µM (inactive) | 5.01 µM (inactive) | 3.66 µM (inactive) | 15.8 µM (inactive) | 4.32 µM (inactive)
O=c1c2c(no[n+]2[O-])c2ccccc2n1-c1ccccc1 | 5.46 µM (inactive) | 2.65 µM (inactive) |  | 4.89 µM (inactive) | 12.6 µM (inactive) | 11.1 µM (inactive) | 11.8 µM (inactive) | 2.89 µM (inactive) | 6.01 µM (inactive) | 8.2 µM (inactive) | 2.25 µM (inactive) | 15.6 µM (inactive) | 3.03 µM (inactive) | 18.6 µM (inactive) | 8.47 µM (inactive) | 12.9 µM (inactive) | 4.57 µM (inactive) | 15.1 µM (inactive) | 14.6 µM (inactive) | 14.3 µM (inactive)
COC1(CC[C@@H](C)COC2OC(CO)C(O)C(O)C2O)O[C@H]2C[C@H]3[C@@H]4CC=C5C[C@@H](OC6OC(CO)C(O)C(OC7OC(CO)C(O)C(O)C7O)C6OC6OC(C)C(O)C(O)C6O)CC[C@]5(C)[C@H]4CC[C@]3(C)[C@H]2[C@@H]1C (stereo not given in full) | 5.45 µM (inactive) | 2.6 µM (inactive) |  | 4.67 µM (inactive) | 15.9 µM (inactive) | 9.84 µM (inactive) | 13.7 µM (inactive) | 2.75 µM (inactive) | 10.2 µM (inactive) | 3.4 µM (inactive) | 28.6 µM (inactive) | 12.9 µM (inactive) | 16.5 µM (inactive) | 8.51 µM (inactive) | 2.46 µM (inactive) | 4.67 µM (inactive) | 16 µM (inactive) | 10.4 µM (inactive) | 16 µM (inactive) | 6.82 µM (inactive)
COc1cc(CCNC2=CC(=O)c3nc[nH]c3C2=O)ccc1O | 26.7 µM (inactive) | 23.8 µM (inactive) |  | 23.6 µM (inactive) | 21.2 µM (inactive) | 14.4 µM (inactive) | 21.4 µM (inactive) | 35.7 µM (inactive) | 19.1 µM (inactive) | 25.7 µM (inactive) | 33.3 µM (inactive) | 34.4 µM (inactive) | 24.7 µM (inactive) | 25.2 µM (inactive) | 25.3 µM (inactive) | 20.7 µM (inactive) | 17.1 µM (inactive) | 40.1 µM (inactive) | > 100 µM (inactive) | 26.4 µM (inactive)
